From patent publication US9738634B2, “Heterocyclic amide compound and herbicide” (SYNGENTA PARTICIPATIONS AG, priority 2013, dated 2017)

Legend:
Format in all cases: in vivo
barnyard grass [1] = assay: Test Example 1: weedkilling efficacy, preemergent weed treatment in the submerged state; A: barnyard grass; conditions: treatment dosage 252 g/ha
Outline: (§1)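 Pots of alluvial soil flooded 4 cm deep, sown with barnyard grass, bulrush and oval-leafed pondweed and transplanted with 2.5-leaf rice. Emulsified compound applied to the water surface on sowing day at stated g/ha; greenhouse 25–30 °C, effects assessed 3 weeks after treatment.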

bulrush [2] = assay: Test Example 1: weedkilling efficacy, preemergent weed treatment in the submerged state; B: bulrush; conditions: treatment dosage 252 g/ha
Outline: as §1

oval-leafed pondweed [3] = assay: Test Example 1: weedkilling efficacy, preemergent weed treatment in the submerged state; C: oval-leafed pondweed; conditions: treatment dosage 252 g/ha
Outline: as §1

transplanted rice = assay: Test Example 1: preemergent weed treatment in the submerged state, effect on crop; a: transplanted rice; conditions: treatment dosage 252 g/ha
Outline: as §1

barnyard grass [4] = assay: Test Example 2: weedkilling efficacy, growth period weed treatment in the submerged state; A: barnyard grass; conditions: treatment dosage 252 g/ha
Outline: (§2)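 Barnyard grass, bulrush and oval-leafed pondweed sown in alluvial soil under 4 cm flooding, greenhouse 25 to 30° C. At 1-2 leaf stage, water-diluted emulsion applied to the water surface at stated g/ha dosages; effects scored 3 weeks later.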

bulrush [5] = assay: Test Example 2: weedkilling efficacy, growth period weed treatment in the submerged state; B: bulrush; conditions: treatment dosage 252 g/ha
Outline: as §2

oval-leafed pondweed [6] = assay: Test Example 2: weedkilling efficacy, growth period weed treatment in the submerged state; C: oval-leafed pondweed; conditions: treatment dosage 252 g/ha
Outline: as §2

crabgrass [7] = assay: Test Example 3: weedkilling efficacy through soil treatment; D: crabgrass; conditions: treatment dosage 315 g/ha
Outline: (§3)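 Crop and weed responses were judged three weeks after a uniform surface spray of the water-diluted emulsion at the given g/ha rate. Seeds sat beneath about 1.5 cm of sterilized diluvial soil, and boxes stood in a greenhouse at 25 to 30° C.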

green foxtail [8] = assay: Test Example 3: weedkilling efficacy through soil treatment; E: green foxtail; conditions: treatment dosage 315 g/ha
Outline: as §3

wild oat = assay: Test Example 3: weedkilling efficacy through soil treatment; G: wild oat; conditions: treatment dosage 315 g/ha
Outline: as §3

black-grass [9] = assay: Test Example 3: weedkilling efficacy through soil treatment; H: black-grass; conditions: treatment dosage 315 g/ha
Outline: as §3

Italian ryegrass [10] = assay: Test Example 3: weedkilling efficacy through soil treatment; I: Italian ryegrass; conditions: treatment dosage 315 g/ha
Outline: as §3

Indian mallow [11] = assay: Test Example 3: weedkilling efficacy through soil treatment; K: Indian mallow; conditions: treatment dosage 315 g/ha
Outline: as §3

redroot pigweed [12] = assay: Test Example 3: weedkilling efficacy through soil treatment; L: redroot pigweed; conditions: treatment dosage 315 g/ha
Outline: as §3

fig-leafed goosefoot [13] = assay: Test Example 3: weedkilling efficacy through soil treatment; M: fig-leafed goosefoot; conditions: treatment dosage 315 g/ha
Outline: as §3

chickweed [14] = assay: Test Example 3: weedkilling efficacy through soil treatment; N: chickweed; conditions: treatment dosage 315 g/ha
Outline: as §3

birds-eye speedwell [15] = assay: Test Example 3: weedkilling efficacy through soil treatment; p: birds-eye speedwell; conditions: treatment dosage 315 g/ha
Outline: as §3

directly sown rice [16] = assay: Test Example 3: soil treatment, effect on crop; b: directly sown rice; conditions: treatment dosage 315 g/ha
Outline: as §3

corn [17] = assay: Test Example 3: soil treatment, effect on crop; c: corn; conditions: treatment dosage 315 g/ha
Outline: as §3

soybean [18] = assay: Test Example 3: soil treatment, effect on crop; d: soybean; conditions: treatment dosage 315 g/ha
Outline: as §3

wheat [19] = assay: Test Example 3: soil treatment, effect on crop; e: wheat; conditions: treatment dosage 315 g/ha
Outline: as §3

beet [20] = assay: Test Example 3: soil treatment, effect on crop; f: beet; conditions: treatment dosage 315 g/ha
Outline: as §3

crabgrass [21] = assay: Test Example 4: weedkilling efficacy by foliar treatment; D: crabgrass; conditions: treatment dosage 315 g/ha
Outline: (§4)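 Seeds are spot-sown into sterilized diluvial soil and covered with about 1.5 cm of soil. After 14 days' greenhouse growth at 25 to 30° C, plants are sprayed on stems and leaves with diluted emulsion at the stated g/ha rate, then scored at 3 weeks.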

green foxtail [22] = assay: Test Example 4: weedkilling efficacy by foliar treatment; E: green foxtail; conditions: treatment dosage 315 g/ha
Outline: as §4

black-grass [23] = assay: Test Example 4: weedkilling efficacy by foliar treatment; H: black-grass; conditions: treatment dosage 315 g/ha
Outline: as §4

Italian ryegrass [24] = assay: Test Example 4: weedkilling efficacy by foliar treatment; I: Italian ryegrass; conditions: treatment dosage 315 g/ha
Outline: as §4

Indian mallow [25] = assay: Test Example 4: weedkilling efficacy by foliar treatment; K: Indian mallow; conditions: treatment dosage 315 g/ha
Outline: as §4

redroot pigweed [26] = assay: Test Example 4: weedkilling efficacy by foliar treatment; L: redroot pigweed; conditions: treatment dosage 315 g/ha
Outline: as §4

fig-leafed goosefoot [27] = assay: Test Example 4: weedkilling efficacy by foliar treatment; M: fig-leafed goosefoot; conditions: treatment dosage 315 g/ha
Outline: as §4

chickweed [28] = assay: Test Example 4: weedkilling efficacy by foliar treatment; N: chickweed; conditions: treatment dosage 315 g/ha
Outline: as §4

catchweed = assay: Test Example 4: weedkilling efficacy by foliar treatment; O: catchweed; conditions: treatment dosage 315 g/ha
Outline: as §4

birds-eye speedwell [29] = assay: Test Example 4: weedkilling efficacy by foliar treatment; p: birds-eye speedwell; conditions: treatment dosage 315 g/ha
Outline: as §4

directly sown rice [30] = assay: Test Example 4: foliar treatment, effect on crop; b: directly sown rice; conditions: treatment dosage 315 g/ha
Outline: as §4

corn [31] = assay: Test Example 4: foliar treatment, effect on crop; c: corn; conditions: treatment dosage 315 g/ha
Outline: as §4

soybean [32] = assay: Test Example 4: foliar treatment, effect on crop; d: soybean; conditions: treatment dosage 315 g/ha
Outline: as §4

wheat [33] = assay: Test Example 4: foliar treatment, effect on crop; e: wheat; conditions: treatment dosage 315 g/ha
Outline: as §4

beet [34] = assay: Test Example 4: foliar treatment, effect on crop; f: beet; conditions: treatment dosage 315 g/ha
Outline: as §4

CSc1nsc(NC(=O)C(C)(C)N2COC(C)=C(c3ccsc3)C2=O)n1 [B-1-05]
A (barnyard grass) weedkilling efficacy grade (barnyard grass [1]): 5 (weed kill ratio 90% or more, (practically complete withering))
B (bulrush) weedkilling efficacy grade (bulrush [2]): 5 (weed kill ratio 90% or more, (practically complete withering))
C (oval-leafed pondweed) weedkilling efficacy grade (oval-leafed pondweed [3]): 5 (weed kill ratio 90% or more, (practically complete withering))
a (transplanted rice) effect on crop grade (transplanted rice): 4 (weed kill ratio 70% or more, less than 90%)
A (barnyard grass) weedkilling efficacy grade (barnyard grass [4]): 5 (weed kill ratio 90% or more, (practically complete withering))
B (bulrush) weedkilling efficacy grade (bulrush [5]): 5 (weed kill ratio 90% or more, (practically complete withering))
C (oval-leafed pondweed) weedkilling efficacy grade (oval-leafed pondweed [6]): 5 (weed kill ratio 90% or more, (practically complete withering))
D (crabgrass) weedkilling efficacy grade (crabgrass [7]): 5 (weed kill ratio 90% or more, (practically complete withering))
E (green foxtail) weedkilling efficacy grade (green foxtail [8]): 5 (weed kill ratio 90% or more, (practically complete withering))
G (wild oat) weedkilling efficacy grade (wild oat): 5 (weed kill ratio 90% or more, (practically complete withering))
H (black-grass) weedkilling efficacy grade (black-grass [9]): 5 (weed kill ratio 90% or more, (practically complete withering))
I (Italian ryegrass) weedkilling efficacy grade (Italian ryegrass [10]): 0 (weed kill ratio 5% or less (practically no effect))
K (Indian mallow) weedkilling efficacy grade (Indian mallow [11]): 4 (weed kill ratio 70% or more, less than 90%)
L (redroot pigweed) weedkilling efficacy grade (redroot pigweed [12]): 4 (weed kill ratio 70% or more, less than 90%)
M (fig-leafed goosefoot) weedkilling efficacy grade (fig-leafed goosefoot [13]): 5 (weed kill ratio 90% or more, (practically complete withering))
N (chickweed) weedkilling efficacy grade (chickweed [14]): 4 (weed kill ratio 70% or more, less than 90%)
P (birds-eye speedwell) weedkilling efficacy grade (birds-eye speedwell [15]): 5 (weed kill ratio 90% or more, (practically complete withering))
b (directly sown rice) effect on crop grade (directly sown rice [16]): 5 (weed kill ratio 90% or more, (practically complete withering))
c (corn) effect on crop grade (corn [17]): 1 (weed kill ratio 5% or more, less than 20%)
d (soybean) effect on crop grade (soybean [18]): 0 (weed kill ratio 5% or less (practically no effect))
e (wheat) effect on crop grade (wheat [19]): 0 (weed kill ratio 5% or less (practically no effect))
f (beet) effect on crop grade (beet [20]): 5 (weed kill ratio 90% or more, (practically complete withering))
D (crabgrass) weedkilling efficacy grade (crabgrass [21]): 5 (weed kill ratio 90% or more, (practically complete withering))
E (green foxtail) weedkilling efficacy grade (green foxtail [22]): 5 (weed kill ratio 90% or more, (practically complete withering))
H (black-grass) weedkilling efficacy grade (black-grass [23]): 5 (weed kill ratio 90% or more, (practically complete withering))
I (Italian ryegrass) weedkilling efficacy grade (Italian ryegrass [24]): 4 (weed kill ratio 70% or more, less than 90%)
K (Indian mallow) weedkilling efficacy grade (Indian mallow [25]): 5 (weed kill ratio 90% or more, (practically complete withering))
L (redroot pigweed) weedkilling efficacy grade (redroot pigweed [26]): 5 (weed kill ratio 90% or more, (practically complete withering))
M (fig-leafed goosefoot) weedkilling efficacy grade (fig-leafed goosefoot [27]): 5 (weed kill ratio 90% or more, (practically complete withering))
N (chickweed) weedkilling efficacy grade (chickweed [28]): 4 (weed kill ratio 70% or more, less than 90%)
O (catchweed) weedkilling efficacy grade (catchweed): 4 (weed kill ratio 70% or more, less than 90%)
P (birds-eye speedwell) weedkilling efficacy grade (birds-eye speedwell [29]): 5 (weed kill ratio 90% or more, (practically complete withering))
b (directly sown rice) effect on crop grade (directly sown rice [30]): 4 (weed kill ratio 70% or more, less than 90%)
c (corn) effect on crop grade (corn [31]): 2 (weed kill ratio 20% or more, less than 40%)
d (soybean) effect on crop grade (soybean [32]): 0 (weed kill ratio 5% or less (practically no effect))
e (wheat) effect on crop grade (wheat [33]): 0 (weed kill ratio 5% or less (practically no effect))
f (beet) effect on crop grade (beet [34]): 4 (weed kill ratio 70% or more, less than 90%)
